According to the NIST ThermoML archive (doi:10.1016/j.jct.2008.09.021):
Numbers after ± are expanded uncertainties.

Tests used:
[1] = refractive index (Na D-line) (dimensionless); details: 298.15 K; 101.33 kPa; Liquid; Standard Abbe refractometry
[2] = Liquid; for mass density: 303.15 K, 101.33 kPa, Pycnometric method; for vapor or sublimation pressure: Ebulliometric method (Recirculating still)

| SMILES | refractive index [1] | mass density [2] [kg/m3] | vapor or sublimation pressure ([2]; 353.95 K) [kPa] | vapor or sublimation pressure ([2]; 473.25 K) [kPa] | vapor or sublimation pressure ([2]; 401.85 K) [kPa] | vapor or sublimation pressure ([2]; 353.85 K) [kPa] | vapor or sublimation pressure ([2]; 371.05 K) [kPa] | vapor or sublimation pressure ([2]; 379.35 K) [kPa] |
| --- | --- | --- | --- | --- | --- | --- | --- | --- |
| CC(C)(C)O [2-methylpropan-2-ol] | 1.3851 ± 0.0013 | 776.16 ± 4.4 | 95.3 ± 2 | – | – | – | – | – |
| CN1CCCC1=O [N-methylpyrrolidone] | 1.4674 ± 0.0008 | 1023.4 ± 0.61 | – | 95.3 ± 1.9 | – | – | – | – |
| CC(C)CCO [3-methylbutan-1-ol] | 1.4053 ± 0.0013 | 801.76 ± 4.7 | – | – | 95.3 ± 2 | – | – | – |
| CC(C)O [propan-2-ol] | 1.375 ± 0.0013 | 776.88 ± 4.4 | – | – | – | 95.3 ± 2 | – | – |
| CCC(C)O (stereo not drawn) [butan-2-ol] | 1.3954 ± 0.0013 | 798.92 ± 4.7 | – | – | – | – | 95.3 ± 2 | – |
| CC(C)CO [2-methyl-1-propanol] | 1.3939 ± 0.0013 | 794.34 ± 4.6 | – | – | – | – | – | 95.3 ± 2 |
